Reference: PubChem BioAssay AID1259407 (Chemical Carcinogenesis Research Information System (CCRIS), 2018)
Activity calls are given as the source filed them. The rule behind the calls is not given here.

Tested on: CCRIS mutagenicity, Ames/micronucleus/aberration tests
Assay: CCRIS mutagenicity studies

`Oc1ccccc1O` was tested. Which mutagenic call (End Point: IN VITRO CHROMOSOMAL ABERRATIONS, Test System: CHINESE HAMSTER V79 CELLS, Metabolic Activation: NONE) did it give?
Its mutagenic call is “active; positive at ph 7.4 and 8.0”.

And the mutagenic call (End Point: IN VITRO MICRONUCLEUS, Test System: CHINESE HAMSTER LUNG (CHL)/IU CELLS, Metabolic Activation: NONE)?
The mutagenic call was “active; positive”.

What about the mutagenic call (Test System: AMES SALMONELLA TYPHIMURIUM, Strain/Indicator: TA97, Metabolic Activation: NONE, Method: PREINCUBATION) of the same compound?
Its mutagenic call is “inactive; negative”.

And the mutagenic call (Test System: AMES SALMONELLA TYPHIMURIUM, Strain/Indicator: TA97, Metabolic Activation: RAT, LIVER, S-9, AROCLOR 1254, Method: PREINCUBATION)?
The mutagenic call was “inactive; negative”.

And the mutagenic call (Test System: AMES SALMONELLA TYPHIMURIUM, Strain/Indicator: TA97, Metabolic Activation: RAT, LIVER, S-9, PHENOBARBITAL, Method: PREINCUBATION)?
Its mutagenic call is “inactive; negative”.

And the mutagenic call (Test System: AMES SALMONELLA TYPHIMURIUM, Strain/Indicator: TA98, Metabolic Activation: HAMSTER, LIVER, S-9, AROCLOR 1254, Method: PREINCUBATION)?
Its mutagenic call is “inactive; negative”.

And the mutagenic call (Test System: AMES SALMONELLA TYPHIMURIUM, Strain/Indicator: TA98, Metabolic Activation: NONE)?
The mutagenic call was “inactive; negative”.

And the mutagenic call (Test System: AMES SALMONELLA TYPHIMURIUM, Strain/Indicator: TA98, Metabolic Activation: NONE, Method: PREINCUBATION)?
The mutagenic call was “inactive; negative”.

What about the mutagenic call (Test System: AMES SALMONELLA TYPHIMURIUM, Strain/Indicator: TA98, Metabolic Activation: RAT, LIVER, S-9, AROCLOR 1254, Method: PREINCUBATION) of the same compound?
The mutagenic call was “inactive; negative”.

And the mutagenic call (Test System: AMES SALMONELLA TYPHIMURIUM, Strain/Indicator: TA98, Metabolic Activation: RAT, LIVER, S-9, PHENOBARBITAL, Method: PREINCUBATION)?
Its mutagenic call is “inactive; negative”.

What about the mutagenic call (Test System: AMES SALMONELLA TYPHIMURIUM, Strain/Indicator: TA98, Metabolic Activation: S-9) of the same compound?
Its mutagenic call is “inactive; negative”.

What about the mutagenic call (Test System: AMES SALMONELLA TYPHIMURIUM, Strain/Indicator: TA100, Metabolic Activation: HAMSTER, LIVER, S-9, AROCLOR 1254, Method: PREINCUBATION) of the same compound?
Its mutagenic call is “inactive; negative”.

And the mutagenic call (Test System: AMES SALMONELLA TYPHIMURIUM, Strain/Indicator: TA100, Metabolic Activation: NONE, Method: FLUCTUATION TEST)?
Its mutagenic call is “active; positive”.

What about the mutagenic call (Test System: AMES SALMONELLA TYPHIMURIUM, Strain/Indicator: TA100, Metabolic Activation: NONE, Method: PREINCUBATION) of the same compound?
The mutagenic call was “inactive; negative”.

What about the mutagenic call (Test System: AMES SALMONELLA TYPHIMURIUM, Strain/Indicator: TA100, Metabolic Activation: RAT, LIVER, S-9, AROCLOR 1254, Method: PREINCUBATION) of the same compound?
Its mutagenic call is “inactive; negative”.

What about the mutagenic call (Test System: AMES SALMONELLA TYPHIMURIUM, Strain/Indicator: TA100, Metabolic Activation: RAT, LIVER, S-9, PCB, Method: FLUCTUATION TEST) of the same compound?
The mutagenic call was “active; positive”.

And the mutagenic call (Test System: AMES SALMONELLA TYPHIMURIUM, Strain/Indicator: TA100, Metabolic Activation: RAT, LIVER, S-9, PHENOBARBITAL, Method: PREINCUBATION)?
The mutagenic call was “inactive; negative”.

What about the mutagenic call (Test System: AMES SALMONELLA TYPHIMURIUM, Strain/Indicator: TA102, Metabolic Activation: NONE, Method: PREINCUBATION) of the same compound?
Its mutagenic call is “inactive; negative”.

And the mutagenic call (Test System: AMES SALMONELLA TYPHIMURIUM, Strain/Indicator: TA102, Metabolic Activation: RAT, LIVER, S-9, AROCLOR 1254, Method: PREINCUBATION)?
Its mutagenic call is “inactive; negative”.

What about the mutagenic call (Test System: AMES SALMONELLA TYPHIMURIUM, Strain/Indicator: TA104, Metabolic Activation: NONE, Method: PREINCUBATION) of the same compound?
Its mutagenic call is “inactive; negative”.

And the mutagenic call (Test System: AMES SALMONELLA TYPHIMURIUM, Strain/Indicator: TA104, Metabolic Activation: RAT, LIVER, S-9, AROCLOR 1254, Method: PREINCUBATION)?
Its mutagenic call is “inactive; negative”.

And the mutagenic call (Test System: AMES SALMONELLA TYPHIMURIUM, Strain/Indicator: TA1535, Metabolic Activation: HAMSTER, LIVER, S-9, AROCLOR 1254, Method: PREINCUBATION)?
Its mutagenic call is “inactive; negative”.

What about the mutagenic call (Test System: AMES SALMONELLA TYPHIMURIUM, Strain/Indicator: TA1535, Metabolic Activation: NONE, Method: PREINCUBATION) of the same compound?
Its mutagenic call is “inactive; negative”.

And the mutagenic call (Test System: AMES SALMONELLA TYPHIMURIUM, Strain/Indicator: TA1535, Metabolic Activation: RAT, LIVER, S-9, AROCLOR 1254, Method: PREINCUBATION)?
Its mutagenic call is “inactive; negative”.

What about the mutagenic call (Test System: AMES SALMONELLA TYPHIMURIUM, Strain/Indicator: TA1537, Metabolic Activation: HAMSTER, LIVER, S-9, AROCLOR 1254, Method: PREINCUBATION) of the same compound?
Its mutagenic call is “inactive; negative”.

And the mutagenic call (Test System: AMES SALMONELLA TYPHIMURIUM, Strain/Indicator: TA1537, Metabolic Activation: NONE, Method: PREINCUBATION)?
Its mutagenic call is “inactive; negative”.

What about the mutagenic call (Test System: AMES SALMONELLA TYPHIMURIUM, Strain/Indicator: TA1537, Metabolic Activation: RAT, LIVER, S-9, AROCLOR 1254, Method: PREINCUBATION) of the same compound?
The mutagenic call was “inactive; negative”.

What about the mutagenic call (Test System: Ames Salmonella typhimurium, Strain/Indicator: TA98, Metabolic Activation: None, Method: Preincubation) of the same compound?
The mutagenic call was “inactive; negative”.

And the mutagenic call (Test System: Ames Salmonella typhimurium, Strain/Indicator: TA98, Metabolic Activation: Rat, Liver, S9, Sodium phenobarbital and 5,6-benzoflavone, Method: Preincubation)?
The mutagenic call was “inactive; negative”.

What about the mutagenic call (Test System: Ames Salmonella typhimurium, Strain/Indicator: TA100, Metabolic Activation: None, Method: Preincubation) of the same compound?
Its mutagenic call is “inactive; negative”.

What about the mutagenic call (Test System: Ames Salmonella typhimurium, Strain/Indicator: TA100, Metabolic Activation: Rat, Liver, S9, Sodium phenobarbital and 5,6-benzoflavone, Method: Preincubation) of the same compound?
Its mutagenic call is “inactive; negative”.

What about the mutagenic call (Test System: Ames Salmonella typhimurium, Strain/Indicator: TA1535, Metabolic Activation: None, Method: Preincubation) of the same compound?
The mutagenic call was “inactive; negative”.

And the mutagenic call (Test System: Ames Salmonella typhimurium, Strain/Indicator: TA1535, Metabolic Activation: Rat, Liver, S9, Sodium phenobarbital and 5,6-benzoflavone, Method: Preincubation)?
The mutagenic call was “inactive; negative”.

What about the mutagenic call (Test System: Ames Salmonella typhimurium, Strain/Indicator: TA1537, Metabolic Activation: None, Method: Preincubation) of the same compound?
Its mutagenic call is “inactive; negative”.

What about the mutagenic call (Test System: Ames Salmonella typhimurium, Strain/Indicator: TA1537, Metabolic Activation: Rat, Liver, S9, Sodium phenobarbital and 5,6-benzoflavone, Method: Preincubation) of the same compound?
Its mutagenic call is “inactive; negative”.

And the mutagenic call (Test System: CHINESE HAMSTER V-79, Strain/Indicator: V-79/6-THIOGUANINE, Metabolic Activation: NONE)?
Its mutagenic call is “active; positive”.

What about the mutagenic call (Test System: E. coli, Strain/Indicator: WP2uvrA/pKM101, Metabolic Activation: None, Method: Preincubation) of the same compound?
Its mutagenic call is “inactive; negative”.

What about the mutagenic call (Test System: E. coli, Strain/Indicator: WP2uvrA/pKM101, Metabolic Activation: Rat, Liver, S9, Sodium phenobarbital and 5,6-benzoflavone, Method: Preincubation) of the same compound?
Its mutagenic call is “inactive; negative”.

And the mutagenic call (Test System: E. coli, Strain/Indicator: Wp2uvrA/pKM101, Metabolic Activation: None, Method: Preincubation)?
The mutagenic call was “inactive; negative”.

And the mutagenic call (Test System: E. coli, Strain/Indicator: Wp2uvrA/pKM101, Metabolic Activation: Rat, Liver, S9, Sodium phenobarbital and 5,6-benzoflavone, Method: Preincubation)?
Its mutagenic call is “inactive; negative”.

And the mutagenic call (Test System: MOUSE LYMPHOMA, Strain/Indicator: L5178Y (TK+/TK-), Metabolic Activation: NONE, Method: SUSPENSION/PLATE)?
Its mutagenic call is “active; positive”.

And the mutagenic call (Test System: UDS SYRIAN HAMSTER EMBRYO (SHE) CELLS, Strain/Indicator: THY INCORP, Metabolic Activation: NONE, Method: LIQUID SCINTILLATION COUNTING)?
Its mutagenic call is “active; positive”.
